The record followed here is publication PMC13324472, “A family of ribosome hibernation factors widespread in Archaea” (Nature Communications, 2026).

The Kd is the constant that tells how readily two partners part at equilibrium. A high value points to weaker binding.

The test concerns the target T1, HibA-CM (isolated HibA N-terminal domain, CBS module) (Pyrococcus abyssi, UniProt Q9UYR4).
T1 construct: gene PAB0961; N-terminal CBS module (residues 1-269 given as the module), made by stop codon at position 272; N-terminal His6 tag, expressed in E. coli Rosetta, Talon and Superdex 200
Put plainly: isothermal titration calorimetry. In kind it is binding. A general note: Isothermal titration calorimetry measures the heat released or taken up as one component is titrated into another.

T1 sequence (Q9UYR4 entry or part of it): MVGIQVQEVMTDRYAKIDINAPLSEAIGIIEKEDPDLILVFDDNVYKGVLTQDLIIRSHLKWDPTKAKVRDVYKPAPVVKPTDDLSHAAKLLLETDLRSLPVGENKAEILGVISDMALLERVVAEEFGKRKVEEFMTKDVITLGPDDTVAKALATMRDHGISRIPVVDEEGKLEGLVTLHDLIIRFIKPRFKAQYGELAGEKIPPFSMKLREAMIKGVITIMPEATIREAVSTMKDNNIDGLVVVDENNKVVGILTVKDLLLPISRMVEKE

On to `Nc1ncnc2c1ncn2[C@@H]1O[C@H](COP(=O)(O)OP(=O)(O)O)[C@@H](O)[C@H]1O` [ADP], for which the Kd was determined as 65 ± 1 µM.
As to `Nc1ncnc2c1ncn2[C@@H]1O[C@H](COP(=O)(O)O)[C@@H](O)[C@H]1O` [AMP], the Kd worked out at 12 ± 2 µM. Against the preceding compound, the Kd is about 5.4-fold lower.
With `Nc1ncnc2c1ncn2[C@@H]1O[C@H](COP(=O)(O)OP(=O)(O)OP(=O)(O)O)[C@@H](O)[C@H]1O` [ATP] the figure was 113 ± 21 µM.
